{
  "source": "patent US20140357512A1",
  "about": "“HISTONE DEACETYLASE (HDAC) BIOMARKERS IN MULTIPLE MYELOMA” (priority 2013, published 2014)",
  "system": "human myeloma cell line MM.1S",
  "assay": "SILAC acetylated-lysine peptide profiling, HDAC inhibitor vs DMSO (light/heavy ratio)",
  "type": "cell-based",
  "from_the_text": "An embodiment of the invention comprises utilizing the SILAC method in order to quantitate changes in protein expression between two or more populations of cells. The SILAC method is a technique based on mass spectrometry that detects differences in protein abundance among samples using non-radioactive isotopic labeling. The SILAC method is known in the art, and described in detail in Ong et al., “Stable Isotope Labeling by Amino Acids in Cell Culture, SILAC, as a Simple and Accurate Approach to Expression Proteomics”, Molecular & Cellular Proteomics, vol. 1, pp. 376-386 (2002), which is incorporated herein by reference in its entirety.\nBriefly, the SILAC method involves growing two populations of cells in cell culture. The first population of cells is grown in growth media containing normal amino acids (“normal media”). The second population of cells is grown in media lacking a standard essential amino acid (such as lysine), but is then supplemented with a non-radioactive, isotopically labeled form of that essential amino acid (such as lysine labeled with ^13C atoms, rather than normal ^12C atoms), which is called “heavy media”. When the two populations of cells are each growing in the medium, they incorporate the amino acids into all of their proteins. The growth of cells maintained in the heavy media is no different from that in normal media. All peptides containing the heavy amino acids are heavier than their normal counterparts. The cells from each of the two populations of cells are lysed. The lysates from each of the two cell populations are then combined. The combined cell lysates are then analyzed by mass spectrometry. Pairs of chemically identical peptides of different stable isotope composition can be differentiated in a mass spectrometer due to their difference in mass. The ratio of peak intensities in the mass spectrum for such peptide pairs reflects the abundance ratio for the two proteins.\nThis example describes SILAC studies that were performed to compare the effects of three different HDAC inhibitors (Compound A, Compound B, and tubastatin A) to a control on a human multiple myeloma cell line. The HDAC inhibitors were also compared amongst themselves to determine differences in their effects.\nA human myeloma cell line MM.1S was grown using either ^12C (light) or ^13C (heavy) lysine containing culture medium. The “heavy” cells were treated with DMSO as the control, and the “light” cells were treated with a single HDAC inhibitor at 37° C. for 6 hours. The heavy and light cells were lysed, and the lysates were mixed in 1:1 ratio and digested with the protease trypsin. The acetylated lysine containing peptides (due to the action of the HDAC inhibitor) in the digested peptide pool were captured by a non-specific anti-acetylated lysine antibody cocktail (the antibodies identify both light and heavy acetylated peptides), and subjected to mass spectrometry analysis in order to identify thousands of individual peptides.\nThousands of peptides were identified in pairs (^12C and ^13C) due to their known mass differences. The amino acid sequence and quantitative ratio (Light/Heavy) of a given peptide in two differentially treated cell lysates were then determined and annotated with their possible protein (gene) sources.\nAs stated above, three HDAC inhibitors (Compound A, Compound B, and Tubastatin A) were used. Thus, the SILAC method was performed three times, with a different HDAC inhibitor compared to a control each time. Accordingly, there are three pairs of quantitative data in the table below, i.e., Compound A:DMSO, Compound B:DMSO, and Tubastatin A:DMSO. A cut-off of 1.30 fold of change (increase or decrease) was then used to determine “changed” or “+” in the table, and any peptides with a fold of change less than 1.3 fold were determined to be “unchanged” or “0” in the table. Those peptides that were not identified were marked as “NA” in the table. […]",
  "data": [
    {"smiles": "O=C(CCCCCCNC(=O)c1cnc(N(c2ccccc2)c2ccccc2)nc1)NO", "note": "[Compound A, 2-(diphenylamino)-N-(7-(hydroxyamino)-7-oxoheptyl)pyrimidine-5-carboxamide]", "values": [
      {"measurement": "light to heavy ratio (L/H ratio) of acetylated peptide AIFAGYK(ac)R (SEQ ID NO: 300)", "setting": "60S ribosomal protein L35a [15], RPL35A, drug:DMSO", "result": 0.86, "unit": "log 2"},
      {"measurement": "light to heavy ratio (L/H ratio) of acetylated peptide KIEISQHAK(ac)YTCSFCGK (SEQ ID NO: 351)", "setting": "60S ribosomal protein L37a [36], RPL37A, drug:DMSO", "result": 0.00, "unit": "log 2"},
      {"measurement": "light to heavy ratio (L/H ratio) of acetylated peptide SIDLK(ac)DK (SEQ ID NO: 572)", "setting": "60 kDa heat shock protein mitochondrial [87], gene HSPD1, inhibitor:DMSO", "result": 0.42, "unit": "log 2"},
      {"measurement": "light to heavy ratio (L/H ratio) of acetylated peptide VMEHFIK(ac)LYK (SEQ ID NO: 276)", "setting": "78 kDa glucose-regulated protein [268], HSPA5, drug:DMSO", "result": 0.54, "unit": "log 2"},
      {"measurement": "light to heavy ratio (L/H ratio) of acetylated peptide AK(ac)[…] (SEQ ID NO: 266)", "setting": "78 kDa glucose-regulated protein [326], HSPA5, drug:DMSO", "result": 0.44, "unit": "log 2"},
      {"measurement": "light to heavy ratio (L/H ratio) of acetylated peptide FK(ac)[…] (SEQ ID NO: 333)", "setting": "116 kDa U5 small nuclear ribonucleoprotein component [790], EFTUD2, drug:DMSO", "result": 0.00, "unit": "log 2"},
      {"measurement": "L/H ratio of acetylated peptide […](ac)LAR (SEQ ID NO: 19)", "setting": "ACADVL [428], log 2 scale, drug vs DMSO", "result": 0.00},
      {"measurement": "L/H ratio of acetylated peptide LDHLAEK(ac)FR (SEQ ID NO: 20)", "setting": "ACTN1 [398], log 2 scale, drug vs DMSO", "result": 0.00},
      {"measurement": "light to heavy ratio (L/H ratio) of acetylated peptide IFGSNK(ac)WTTEQQQR (SEQ ID NO: 306)", "setting": "ADP-ribosylation factor-like protein 6-interacting protein 1 [96], ARL6IP1, drug:DMSO", "result": 1.00, "unit": "log 2"},
      {"measurement": "light to heavy ratio (L/H ratio) of acetylated peptide TTLLYK(ac)LK (SEQ ID NO: 624)", "setting": "ADP-ribosylation factor-like protein 11 [31], gene ARL11, inhibitor:DMSO", "result": 0.49, "unit": "log 2"},
      {"measurement": "light to heavy ratio (L/H ratio) of acetylated peptide IFK(ac)SDGLR (SEQ ID NO: 280)", "setting": "ADP/ATP translocase 1 [166], SLC25A4, drug:DMSO", "result": 0.56, "unit": "log 2"},
      {"measurement": "light to heavy ratio (L/H ratio) of acetylated peptide ITK(ac)SDGIR (SEQ ID NO: 587)", "setting": "ADP/ATP translocase 3 [166], gene SLC25A6, inhibitor:DMSO", "result": 0.44, "unit": "log 2"},
      {"measurement": "L/H ratio of acetylated peptide", "setting": "AK(ac)HDELTYF (SEQ ID NO: 497), Cystatin-B [91], CSTB", "result": "−0.88", "unit": "log 2"},
      {"measurement": "light to heavy ratio (L/H ratio) of acetylated peptide, log 2 scale", "setting": "ALDLNLK(ac)HQILPK (SEQ ID NO: 248), Cytochrome b-c1 complex subunit 7 [72], UQCRB", "result": "−0.50"},
      {"measurement": "L/H ratio of acetylated peptide LK(ac)[…] (SEQ ID NO: 21)", "setting": "ANP32B [101], log 2 scale, drug vs DMSO", "result": 0.00},
      {"measurement": "L/H ratio of acetylated peptide […](ac)SLYGK (SEQ ID NO: 22)", "setting": "ANXA6 [63], log 2 scale, drug vs DMSO", "result": 0.00},
      {"measurement": "L/H ratio of acetylated peptide MYFDK(ac)[…] (SEQ ID NO: 23)", "setting": "ATAD3A [491], log 2 scale, drug vs DMSO", "result": 0.00},
      {"measurement": "L/H ratio of acetylated peptide IVEYEK(ac)EMEK (SEQ ID NO: 24)", "setting": "ATP5H [117], log 2 scale, drug vs DMSO", "result": 0.00},
      {"measurement": "L/H ratio of acetylated peptide YYNK(ac)YINVK (SEQ ID NO: 12)", "setting": "ATP5J2 [54], log 2 scale, drug vs DMSO", "result": 0.54},
      {"measurement": "light to heavy ratio (L/H ratio) of acetylated peptide QNK(ac)LEQVEK (SEQ ID NO: 271)", "setting": "ATP synthase subunit O mitochondrial [54], ATP50, drug:DMSO", "result": 0.46, "unit": "log 2"},
      {"measurement": "light to heavy ratio (L/H ratio) of acetylated peptide STVAQLVK(ac)R (SEQ ID NO: 552)", "setting": "ATP synthase subunit alpha mitochondrial [261], gene ATP5A1, inhibitor:DMSO", "result": 0.39, "unit": "log 2"},
      {"measurement": "light to heavy ratio (L/H ratio) of acetylated peptide ISEQSDAK(ac)LK (SEQ ID NO: 600)", "setting": "ATP synthase subunit alpha mitochondrial [539], gene ATP5A1, inhibitor:DMSO", "result": 0.46, "unit": "log 2"},
      {"measurement": "light to heavy ratio (L/H ratio) of acetylated peptide […](ac)ETIAK (SEQ ID NO: 307)", "setting": "ATP synthase subunit b mitochondrial [233], ATP5F1, drug:DMSO", "result": 1.00, "unit": "log 2"},
      {"measurement": "light to heavy ratio (L/H ratio) of acetylated peptide LVPLK(ac)ETIK (SEQ ID NO: 507)", "setting": "ATP synthase subunit beta mitochondrial [485], gene ATP5B, inhibitor:DMSO", "result": "−0.64", "unit": "log 2"},
      {"measurement": "light to heavy ratio (L/H ratio) of acetylated peptide […](ac)QLTVK (SEQ ID NO: 279)", "setting": "ATP synthase subunit g mitochondrial [66], ATP5L, drug:DMSO", "result": 0.56, "unit": "log 2"},
      {"measurement": "light to heavy ratio (L/H ratio) of acetylated peptide FEDPK(ac)FEVIEKPQA (SEQ ID NO: 325)", "setting": "ATP synthase-coupling factor 6 mitochondrial [99], ATP5J, drug:DMSO", "result": 0.00, "unit": "log 2"},
      {"measurement": "light to heavy ratio (L/H ratio) of acetylated peptide SAQEAYK(ac)SYIR (SEQ ID NO: 502)", "setting": "ATP-dependent RNA helicase DDX18 [584], gene DDX18, inhibitor:DMSO", "result": "−0.74", "unit": "log 2"},
      {"measurement": "light to heavy ratio (L/H ratio) of acetylated peptide MQK(ac)[…] (SEQ ID NO: 526)", "setting": "Actin aortic smooth muscle [317], gene ACTA2, inhibitor:DMSO", "result": "−0.44", "unit": "log 2"},
      {"measurement": "light to heavy ratio (L/H ratio) of acetylated peptide AFAK(ac)ELFLGK (SEQ ID NO: 627)", "setting": "Acyl-CoA dehydrogenase family member 9 mitochondrial [41], gene ACAD9, inhibitor:DMSO", "result": 0.49, "unit": "log 2"},
      {"measurement": "light to heavy ratio (L/H ratio) of acetylated peptide YSAK(ac)DYFFK (SEQ ID NO: 319)", "setting": "Alpha-soluble NSF attachment protein [203], NAPA, drug:DMSO", "result": 1.00, "unit": "log 2"},
      {"measurement": "light to heavy ratio (L/H ratio), log 2 scale, acetylated peptide SELTGK(ac)FEK (SEQ ID NO: 778)", "setting": "Annexin A5 [76], gene ANXA5, drug:DMSO", "result": 1.00},
      {"measurement": "light to heavy ratio (L/H ratio) of acetylated peptide PAQGAK(ac)YR (SEQ ID NO: 305)", "setting": "Annexin A6 [9], ANXA6, drug:DMSO", "result": 1.00, "unit": "log 2"},
      {"measurement": "light to heavy ratio (L/H ratio) of acetylated peptide TKYEK(ac)SLYSMIK (SEQ ID NO: 270)", "setting": "Annexin A6 [299], ANXA6, drug:DMSO", "result": 0.46, "unit": "log 2"},
      {"measurement": "light to heavy ratio (L/H ratio) of acetylated peptide NDTSGEYK(ac)K (SEQ ID NO: 285)", "setting": "Annexin A6 [314], ANXA6, drug:DMSO", "result": 0.61, "unit": "log 2"},
      {"measurement": "light to heavy ratio (L/H ratio) of acetylated peptide AINEAYK(ac)EDYHK (SEQ ID NO: 282)", "setting": "Annexin A6 [478], ANXA6, drug:DMSO", "result": 0.59, "unit": "log 2"},
      {"measurement": "light to heavy ratio (L/H ratio) of acetylated peptide NKPLFFADK(ac)LYK (SEQ ID NO: 298)", "setting": "Annexin A6 [607], ANXA6, drug:DMSO", "result": 0.78, "unit": "log 2"}
    ]}
  ]
}
